Reference: patent publication US12636385B2, “Selective ligands for tau aggregates” (Sentonix, Inc., priority 2018, dated 2026)

Experiments:
0N4R Tau fibrils = biological target: T1, 0N4R Tau fibrils (Homo sapiens, UniProt P10636); assay: ^3H-THK5117 competition binding to tau fibrils in vitro; details: for IC50: 3 nM [^3H]-THK5117, recombinant 0N4R tau fibrils, average if run more than once; for Selectivity for tau relative to Aβ: calculated from [^3H]-THK5117 tau and [^3H]-AZD2184 Aβ assays
T1 construct: made in house
T1 sequence (P10636 1-383 isoform P10636-6): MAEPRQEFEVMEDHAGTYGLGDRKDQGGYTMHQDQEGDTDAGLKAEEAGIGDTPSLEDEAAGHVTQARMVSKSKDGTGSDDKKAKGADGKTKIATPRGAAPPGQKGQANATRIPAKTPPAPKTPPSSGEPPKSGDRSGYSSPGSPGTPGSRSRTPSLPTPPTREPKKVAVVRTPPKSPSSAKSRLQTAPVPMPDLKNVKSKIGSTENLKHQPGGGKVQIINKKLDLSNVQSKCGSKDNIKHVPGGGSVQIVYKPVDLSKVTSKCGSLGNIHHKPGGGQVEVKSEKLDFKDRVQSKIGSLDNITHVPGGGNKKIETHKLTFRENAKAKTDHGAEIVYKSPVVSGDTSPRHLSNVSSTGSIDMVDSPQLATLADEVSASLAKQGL
Description: Preparation of recombinant 0N4R Tau fibrils was performed as previously described in Morozova, O. A., Biochemistry (2013), Vol., 52(40), pages 6960-6967. Competition binding experiments to 0N4R Tau fibrils were performed by incubating increasing concentrations [10^−10-10^−6 M] of the Example compounds of the invention, or the known tau specific ligand PBB3 (PBB3 was synthesized as previously described in M. Maruyama, et al, Neuron 2013, 79, 1094-1108) or MK6240 (Novandi Chemistry AB), in the presence of 3 nM of the known tau ligand [^3H]-THK5117 (Novandi Chemistry) and 0.2 mM 0N4R tau fibrils in binding buffer (50 mM Tris-HCl, pH 7.4, 0.1% BSA) for 1 h in the dark, and at 22° C. The incubation was terminated by filtration through a Whatman GF/B glass filter (Whatman International, Kent, UK) using a Brandel cell harvester. The filter was then washed rapidly four times with 3 mL of ice-cold wash buffer (5 mM Tris-HCl, 0.25 mM NaCl, 5% EtOH), and equilibrated for 1 h in scintillation vials containing 5 mL of Ultima Gold scintillation fluid before being analysed using a Liquid Scintillation Analyzer.
The results are shown in Table 2 in the column labeled “Tau IC50”.
Relative selectivity for tau compared to Aβ for the exemplified compounds was calculated using the results for the [^3H]-THK5117 tau and [^3H]-AZD2184 Aβ assays described above. The calculated results are shown in Table 2 in the column labeled “Selectivity for tau relative to Aβ”.

Aβ(1-42) amyloid fibrils = biological target: T2, Aβ(1-42) amyloid fibrils (Homo sapiens, UniProt P05067); assay: ^3H-AZD2184 competition binding to Aβ(1-42) fibrils in vitro; details: [^3H]-AZD2184, Aβ(1-42) amyloid fibrils; average if run more than once
T2 construct: Aβ(1-42) amyloid fibrils
T2 sequence (P05067 672-713): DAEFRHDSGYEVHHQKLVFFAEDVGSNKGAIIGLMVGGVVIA
Description: Competition binding experiments to Aβ(1-42) amyloid fibrils were performed as previously described in Jureus, A., et al, Journal of Neurochemistry (2010), Vol. 114, pages 784-794 for the Example compounds of the invention indicated in Table 2, or the known tau specific ligand PBB3 (PBB3 was synthesized as previously described in M. Maruyama, et al, Neuron 2013, 79, 1094-1108).
The results are shown in Table 2 in the column labeled “Aβ IC50”.

Row | SMILES | IC50 (0N4R Tau fibrils) [nM] | Selectivity for tau relative to Aβ (0N4R Tau fibrils) | IC50 (Aβ(1-42) amyloid fibrils) [nM]
1 | OC1CCN(c2ncc(-c3cc4ccccc4o3)cn2)CC1 [Compound 32] | 43 | 1.5 | 66
2 | FCCC1CCN(c2ccc(-c3nc4ccccc4o3)cn2)CC1 [Compound 13] | 13 | – | –
3 | Oc1ccc2nc(-c3cnc(N4CCC(CCF)CC4)nc3)sc2c1 [Compound 39] | 1.5 | 33 | 50
4 | FCCC1CCN(c2ccc(-c3nc4ccccc4s3)cn2)CC1 [Compound 9] | 6 | – | –
5 | FCCCCOC1CCN(c2ccc(-c3nc4ccccc4s3)cn2)CC1 [Compound 5] | 5 | 4.8 | 24
6 | COc1ccc2nc(-c3cnc(N4CCC(CCOCCOCCOCCF)CC4)nc3)sc2c1 [Compound 26] | 5 | 1.6 | 8
7 | OCCC1CCN(c2ncc(-c3nc4ccccc4[nH]3)cn2)CC1 [Compound 49, 2-{1-[5-(1H-1,3-Benzodiazol-2-yl)pyrimidin-2-yl]piperidin-4-yl}ethan-1-ol] | 49 | – | –
8 | OCCC1CCN(c2ccc(-c3nc4ccccc4s3)cn2)CC1 [Compound 7] | 7 | 2.1 | 15
9 | OCCOC1CCN(c2ncc(-c3cc4ccccc4o3)cn2)CC1 [Compound 31] | 15 | – | –
10 | FCCC1CCN(c2ncc(-c3cc4ccccc4o3)cn2)CC1 [Compound 30] | 12 | 2.1 | 25
11 | COc1ccc2nc(-c3ccc(N4CCC(CCOCCOCCOCCF)CC4)nc3)sc2c1 [Compound 22] | 4 | 1 | 4
12 | OCC1CCN(c2ccc(-c3nc4ccc(OCCF)cc4s3)cn2)CC1 [Compound 56] | 2 | 1.5 | 3
13 | OCCC1CCN(c2ccc(-c3nc4cnccc4o3)cn2)CC1 [Compound 18] | 39 | – | –
14 | FCCCCOCC1CCN(c2ccc(-c3nc4ccccc4s3)cn2)CC1 [Compound 3] | 11 | 3.9 | 43
15 | COc1ccc2[nH]c(-c3ccc(N4CCC(C(N)=O)CC4)nc3F)cc2c1 [Compound 68] | 7 | 10 | 72
16 | c1ccc2oc(-c3ccc(N4CCCCC4)nc3)nc2c1 [Compound 14] | 22 | – | –
17 | OCCC1CCN(c2ncc(-c3cc4ccccc4o3)cn2)CC1 [Compound 28] | 10 | 1.5 | 15
18 | NC(=O)c1ccc2cc(-c3cnc(N4CCC(CF)CC4)nc3)[nH]c2c1 [Compound 70, 2-{2-[4-(Fluoromethyl)piperidin-1-yl]pyrimidin-5-yl}-1H-indole-6-carboxamide] | 20 | – | –
19 | NC(=O)COC1CCN(c2ccc(-c3nc4ccccc4s3)cn2)CC1 [Compound 10] | 31 | – | –

Row | SMILES | IC50 (0N4R Tau fibrils) [nM] | Selectivity for tau relative to Aβ (0N4R Tau fibrils) | IC50 (Aβ(1-42) amyloid fibrils) [nM]
20 | FCC1CCN(c2ccc(-c3nc4ccccc4s3)cn2)CC1 [Compound 2] | 7 | – | –
21 | NC(=O)COC1CCN(c2ncc(-c3cc4ccccc4o3)cn2)CC1 [Compound 34] | 32 | – | –
22 | NC(=O)c1ccc2nc(-c3cnc(N4CCC(CCF)CC4)nc3)sc2c1 [Compound 43] | 4 | 18 | 72
23 | OCCC1CCN(c2ccc(-c3cc4ccccc4o3)nn2)CC1 [Compound 35] | 100 | – | –
24 | CCOC(=O)c1ccc2nc(-c3cnc(N4CCC(CCO)CC4)nc3)sc2c1 [Compound 59] | 5 | – | –
25 | CS(=O)(=O)OCCC1CCN(c2ncc(-c3nc4ccc(C(N)=O)cc4s3)cn2)CC1 [Compound 42] | 15 | – | –
26 | CCOC(=O)c1ccc2nc(-c3cnc(N4CCC(CCF)CC4)nc3)sc2c1 [Compound 44] | 4 | – | –
27 | CC1CCN(c2ccc(-c3nc4ccccc4o3)cn2)CC1 [Compound 16] | 59 | – | –
28 | OCC1CCN(c2ncc(-c3cc4cc(OCCF)ccc4[nH]3)cn2)CC1 [Compound 72, (1-{5-[5-(2-Fluoroethoxy)-1H-indol-2-yl]pyrimidin-2-yl}piperidin-4-yl)methanol] | 7 | 6 | 42
29 | OCC1CCN(c2ccc(-c3cc4cc(O)ccc4[nH]3)c(F)n2)CC1 [Compound 48] | 5 | 37 | 187
30 | OCC1CCN(c2ccc(-c3cc4cc(OCCF)ccc4[nH]3)cn2)CC1 [Compound 77] | 14 | – | –
31 | COc1ccc2nc(-c3ccc(N4CCC(CCO)CC4)nc3)sc2c1 [Compound 21] | 5 | 14 | 70
32 | COc1ccc2nc(-c3cnc(N4CCC(CCF)CC4)nc3)cn2c1 [Compound 53] | 14 | 2.6 | 37
33 | COc1ccc2nc(-c3cnc(N4CCC(CCO)CC4)nc3)sc2c1 [Compound 25] | 3 | 22 | 65
34 | OCC1CCN(c2ccc(-c3nc4ccc(O)cc4s3)cn2)CC1 [Compound 55] | 7 | – | –
35 | OCCC1CCN(c2ccc(-c3cc4ccccc4o3)cn2)CC1 [Compound 27] | 7 | 4.9 | 34
36 | COc1ccc2[nH]c(-c3ccc(N4CCC(CCO)CC4)nc3)cc2c1 [Compound 51, 2-{1-[5-(5-Methoxy-1H-indol-2-yl)pyridin-2-yl]piperidin-4-yl}ethan-1-ol] | 13 | – | –
37 | OCCC1CCN(c2ncc(-c3nc4ccc(O)cc4s3)cn2)CC1 [Compound 38] | 6 | 42 | 250
38 | CCOC(=O)C1CCN(c2ccc(-c3cc4cc(O)ccc4[nH]3)c(F)n2)CC1 [Compound 65] | 2 | 22 | 44

Row | SMILES | IC50 (0N4R Tau fibrils) [nM] | Selectivity for tau relative to Aβ (0N4R Tau fibrils) | IC50 (Aβ(1-42) amyloid fibrils) [nM]
39 | OCCC1CCN(c2ccc(-c3cc4ccccc4s3)cn2)CC1 [Compound 50, 2-{1-[5-(1-Benzothiophen-2-yl)pyridin-2-yl]piperidin-4-yl}ethan-1-ol] | 4 | – | –
40 | COS(=O)(=O)CCC1CCN(c2ncc(-c3cc4ccccc4o3)cn2)CC1 [Compound 29] | 32 | – | –
41 | COc1cnc2[nH]c(-c3ccc(N4CCC(CO)CC4)nc3F)cc2c1 [Compound 74] | 14 | – | –
42 | COC1CCN(c2ccc(-c3nc4ccccc4o3)cn2)CC1 [Compound 15] | 39 | – | –
43 | O=C(NCCF)c1ccc2nc(-c3cnc(N4CCC(CCO)CC4)nc3)sc2c1 [Compound 61] | 19 | – | –
44 | CS(=O)(=O)OCCC1CCN(c2ccc(-c3nc4cnccc4o3)cn2)CC1 [Compound 19] | 76 | – | –
45 | CS(=O)(=O)OCCC1CCN(c2ccc(-c3nc4ccccc4o3)cn2)CC1 [Compound 12] | 17 | – | –
46 | OC1CCN(c2ccc(-c3nc4ccccc4s3)cn2)CC1 [Compound 4] | 43 | – | –
47 | CCOC(=O)C1CCN(c2ccc(-c3cc4ccc(OC)cc4[nH]3)c(F)n2)CC1 [Compound 63, Ethyl 1-[6-Fluoro-5-(6-methoxy-1H-indol-2-yl)pyridin-2-yl]piperidine-4-carboxylate] | 2.3 | – | –
48 | NC(=O)c1ccc2nc(-c3cnc(N4CCC(CCO)CC4)nc3)sc2c1 [Compound 41] | 10 | – | –
49 | CNC(=O)c1ccc2cc(-c3ccc(N4CCC(CO)CC4)nc3F)[nH]c2c1 [Compound 64, 2-{2-Fluoro-6-[4-(hydroxymethyl)piperidin-1-yl]pyridin-3-yl}-N-methyl-1H-indole-6-carboxamide] | 24 | – | –
50 | OCCC1CCN(c2ccc(-c3nc4ccc(OCC(O)CF)cc4s3)cn2)CC1 (stereo not shown) [Compound 37] | 14 | – | –
51 | OCC1CCN(c2ccc(-c3cc4cccnc4[nH]3)c(F)n2)CC1 [Compound 73, [1-(6-Fluoro-5-{1H-pyrrolo[2,3-b]pyridin-2-yl}pyridin-2-yl)piperidin-4-yl]methanol] | 41 | – | –
52 | OCC1CCN(c2ccc(-c3cc4cc(O)cnc4[nH]3)c(F)n2)CC1 [Compound 75] | 14 | – | –
53 | Cc1ccc(S(=O)(=O)OCCC2CCN(c3ccc(-c4nc5ccccc5s4)cn3)CC2)cc1 [Compound 8] | 8 | – | –
54 | N#CC1CCN(c2ccc(-c3nc4ccccc4o3)cn2)CC1 [Compound 17] | 73 | – | –
55 | OCC1CCN(c2ccc(-c3nc4ccccc4s3)cn2)CC1 [Compound 1] | 19 | – | –
56 | FCCC1CCN(c2ccc(-c3nc4cnccc4o3)cn2)CC1 [Compound 20] | 60 | – | –
57 | OCCC1CCN(c2ccc(-c3nc4ccccc4o3)cn2)CC1 [Compound 11] | 64 | – | –
